The results in this text go back to patent EP0973746B1, “SUBSTITUTED 3-CYANO QUINOLINES” (Wyeth Holdings Corporation, priority 1997, dated 1998).

pIC50: −log10 of the molar value.

The target in the assay is epidermal growth factor receptor kinase (Homo sapiens, UniProt P00533). Put plainly: biochemical.
Chain of epidermal growth factor receptor kinase (P00533 25-1210): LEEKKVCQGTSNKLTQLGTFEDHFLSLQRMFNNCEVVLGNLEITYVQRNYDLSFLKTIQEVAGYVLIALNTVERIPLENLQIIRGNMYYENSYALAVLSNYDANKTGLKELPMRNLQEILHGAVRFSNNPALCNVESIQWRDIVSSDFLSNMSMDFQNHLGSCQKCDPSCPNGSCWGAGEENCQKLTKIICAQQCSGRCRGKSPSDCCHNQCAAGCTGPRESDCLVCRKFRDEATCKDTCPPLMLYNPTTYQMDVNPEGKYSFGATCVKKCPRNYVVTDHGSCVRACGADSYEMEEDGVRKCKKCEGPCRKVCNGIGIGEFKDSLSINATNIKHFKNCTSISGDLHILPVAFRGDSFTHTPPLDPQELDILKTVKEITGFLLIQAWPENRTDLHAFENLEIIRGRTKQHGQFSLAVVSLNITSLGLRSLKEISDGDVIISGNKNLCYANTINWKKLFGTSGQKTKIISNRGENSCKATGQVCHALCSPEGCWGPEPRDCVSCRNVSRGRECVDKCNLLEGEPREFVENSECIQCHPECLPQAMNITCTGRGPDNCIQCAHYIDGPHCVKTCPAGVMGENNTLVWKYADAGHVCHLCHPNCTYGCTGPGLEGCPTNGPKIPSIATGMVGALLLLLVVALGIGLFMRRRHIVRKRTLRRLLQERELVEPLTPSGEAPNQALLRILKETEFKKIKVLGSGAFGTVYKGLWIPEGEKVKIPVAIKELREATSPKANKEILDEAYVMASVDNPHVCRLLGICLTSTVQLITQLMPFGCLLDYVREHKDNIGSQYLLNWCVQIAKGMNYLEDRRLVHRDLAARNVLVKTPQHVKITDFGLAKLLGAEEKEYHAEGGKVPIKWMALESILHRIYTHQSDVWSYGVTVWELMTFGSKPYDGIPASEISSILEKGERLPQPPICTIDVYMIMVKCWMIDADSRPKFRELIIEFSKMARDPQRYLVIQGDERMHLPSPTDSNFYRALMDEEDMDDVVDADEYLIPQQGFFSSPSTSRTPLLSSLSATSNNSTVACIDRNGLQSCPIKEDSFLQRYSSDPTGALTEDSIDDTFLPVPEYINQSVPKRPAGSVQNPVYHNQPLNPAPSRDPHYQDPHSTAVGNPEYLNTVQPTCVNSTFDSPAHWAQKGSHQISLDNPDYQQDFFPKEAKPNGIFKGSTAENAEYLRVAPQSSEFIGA
By pIC50 is commonly meant −log10 of the IC50, conventionally taken in molar units. `C=C(C)C(=O)Nc1ccc2ncc(C#N)c(Nc3cccc(Br)c3)c2c1` [Example 53, N-[4-[(3-Bromophenyl)amino]-3-cyano-6-quinolinyl]-2-methyl-2-propenamide] showed a pIC50 of 8.15. The figure for `C=CC(=O)Nc1ccc2ncc(C#N)c(Nc3ccc(Br)c(Br)c3)c2c1` [Example 54, N-[4-[(3,4-Dibromophenyl)amino]-3-cyano-6-quinolinyl]-2-propenamide] is 8.15; for `N#Cc1cnc2ccc(NC(=O)/C=C\Cl)cc2c1Nc1cccc(Br)c1` [Example 52, N-[4-[(3-Bromophenyl)amino]-3-cyano-6-quinolinyl]-3(Z)-chloro-2-propenamide] it is 8.00.

As for `N#Cc1cnc2ccc(NC(=O)C#CCO)cc2c1Nc1cccc(Br)c1` [Example 57, N-[4-[(3-Bromophenyl)amino]-3-cyano-6-quinolinyl]-4-hydroxy-2-butynamide], the pIC50 is 8.10. The figure for `CN(C)CC#CC(=O)Nc1ccc2ncc(C#N)c(Nc3cccc(Br)c3)c2c1` [Example 59, N-[4-[(3-Bromophenyl)amino]-3-cyano-6-quinolinyl]-4-dimethylamino-2-butynamide] is 10.00; for `N#Cc1cnc2ccc(NC(=O)/C=C/Cl)cc2c1Nc1cccc(Br)c1` [Example 51, N-[4-[(3-Bromophenyl)amino]-3-cyano-6-quinolinyl]-3(E)-chloro-2-propenamide] it is 10.30. For `N#Cc1cnc2ccc(NC(=O)C#CCN3CCOCC3)cc2c1Nc1cccc(Br)c1` [Example 58, N-[4-[(3-Bromophenyl)amino]-3-cyano-6-quinoliny]-4-morpholino-2-butynamide] the value was 8.70.
